From patent publication US8466201B2, “Potassium ion channel modulators and uses thereof” (Ramot at Tel-Aviv University ltd., priority 2007, dated 2013)

Biological target: KCNQ2/KCNQ3 potassium channel current expressed in mammalian cells (Homo sapiens, UniProt O43525+O43526)
Assay: KCNQ2/KCNQ3 current enhancement, automated parallel patch-clamp (PatchXpress 7000A)
Format: cell-based
Conditions: mean±s.e.m
Experimental: The objective of this study was to examine the in vitro effects of the Example compounds on the KCNQ2/KCNQ3 potassium channel current expressed in mammalian cells using the PatchXpress 7000A (Molecular Devices), an automatic parallel patch-clamp system. The test compounds were evaluated at 30 or 10 μM (n≦2). The duration of exposure to the test compound was 5 minutes. […] The results for a positive control, flupirtine (Table 2) applied to naïve cells in the same study confirm the sensitivity of the test system to detect KCNQ2/KCNQ3 current enhancement.
All experiments were performed at ambient temperature. Each cell acted as its own control.
A 30 μM or 10 μM concentration of test compound was applied via disposable polyethylene micropipette tips to naïve cells. Each solution exchange, performed in quadruplicate, consisted of aspiration and replacement of 45 μL of the total 50 μL volume of the extracellular well of the Sea/chip16.
Vehicle was applied to naïve cells (n≦2), for a 5 minute exposure interval.
Each solution exchange, performed in quadruplicate, consisted of aspiration and replacement of 45 μL of the total 50 μL volume of the extracellular well of the Sea/chip16. After vehicle application, the positive control was applied in the same manner, to verify sensitivity of the assay.
In preparation for a recording session, intracellular solution was loaded into the intracellular compartments of the Sea/chip16 planar electrode. Cell suspension was pipetted into the extracellular compartments of the Sea/chip16 planar electrode. After establishment of the whole-cell configuration, membrane currents were recorded using dual-channel patch-clamp amplifiers in the PatchXpress® system. Before digitization, the current records were low-pass filtered at one-fifth of the sampling frequency.
Data acquisition and analysis were performed using the pCLAMP suite of programs (Axon Instruments, Union City, Calif.). The steady-state current before and after test article application was used to calculate the percentage current enhancement at each concentration. The results obtained from different cells were averaged and presented as mean±s.e.m (see Tables 1 and 2).

[1] = 30 μM test compound, 5 minutes exposure, ambient temperature

Row | SMILES | Mean % Enhancement of KCNQ2/KCNQ3 [1] | other results
1 | O=S(=O)(Cc1ccccc1Nc1c(Cl)cccc1Cl)NCCOCCO [Example 1, 1-[2-(2,6-Dichlorophenylamino)phenyl]-N-[2-(2-hydroxyethoxy)ethyl]-methanesulfonamide] | 32.4 ± 18% | 
2 | O=S(=O)(NCCO)c1ccccc1Nc1c(Cl)cc(Cl)cc1Cl [Example 8, N-(2-Hydroxyethyl)-2-(2,4,6-trichlorophenylamino)-benzenesulfonamide] | 41.2 ± 9% | 
3 | O=S(=O)(NCCO)c1ccccc1Nc1c(Cl)cccc1Cl [Example 9, N-(2-Hydroxyethyl)-2-(2,6-dichlorophenylamino)-benzenesulfonamide] | 56.8 ± 9% | 
4 | O=S(=O)(NCCO)c1cccc(Nc2c(Cl)cc(Cl)cc2Cl)c1 [Example 16, N-(2-Hydroxyethyl)-3-(2,4,6-trichlorophenylamino)-benzenesulfonamide] | 87.4 ± 14% | 
5 | O=S(=O)(NCCO)c1cc(Nc2c(Cl)cc(Cl)cc2Cl)ccc1Cl [Example 18, 2-Chloro-N-(2-hydroxyethyl)-5-(2,4,6-trichlorophenylamino)benzensulfonamide] |  | Mean % Enhancement of KCNQ2/KCNQ3 (10 μM test compound, 5 minutes exposure, ambient temperature): 18.6 ± 4%
6 | CCOC(=O)Nc1ccc(NCc2ccc(F)cc2)nc1N [Flupirtine, flupirtine, reference compound] |  | Mean % Enhancement of KCNQ2/KCNQ3 (positive control, 10 μM, applied after vehicle to naïve cells): 127 ± 16%
